Assays:
[1] = system: 229E human corona virus (hCoV); experiment: 229E Live Virus Assay (MRC-5 cells, CPE, ATPlite readout); assay type: cell-based, hCoV-229E; details: Human coronavirus 229E, MRC5, 144 h, read-out: 229E EC50
SARS-CoV-2 3CL-protease = SARS-CoV-2 3CL-protease (Severe acute respiratory syndrome coronavirus 2 (2019-nCoV) (SARS-CoV-2), UniProt P0DTD1); experiment: SARS-CoV-2 3C-Like (3CL) Protease Fluorescence Assay (FRET); assay type: biochemical

Question: CN(C(=O)[C@H](CC1CC1)NC(=O)C(F)(F)F)[C@@H](CC(C)(C)C)C(=O)N1C[C@]2(C[C@H]1C#N)C(=O)Nc1ccccc12 [Example 75] was tested. Which EC50 [1] did it give?
Answer: The EC50 was under 100 nM.

Question: What about the IC50 (SARS-CoV-2 3CL-protease) of the same compound?
Answer: Its IC50 is under 100 nM.

Question: CN(C(=O)[C@H](CC1CC1)NC(=O)C1CC1)[C@@H](CC(C)(C)C)C(=O)N1C[C@]2(C[C@H]1C#N)C(=O)Nc1ccccc12 [Example 76] was tested. Which EC50 [1] did it give?
Answer: The EC50 was under 100 nM.

Question: And the IC50 (SARS-CoV-2 3CL-protease)?
Answer: Its IC50 is under 100 nM.

Question: [2H]C([2H])([2H])N(C(=O)[C@H](CC1CC1)NC(=O)C1COC1)[C@@H](Cc1ccc(F)cc1)C(=O)N1C[C@]2(C[C@H]1C#N)C(=O)Nc1ccccc12 [Example 77] was tested. Which EC50 [1] did it give?
Answer: Its EC50 is 100 to 1000 nM.

Question: What about the IC50 (SARS-CoV-2 3CL-protease) of the same compound?
Answer: The IC50 was under 100 nM.

Question: Which results are given for CC(=O)N[C@@H](CC1CC1)C(=O)N(C)[C@@H](CC(C)(C)C)C(=O)N1C[C@]2(C[C@H]1C#N)C(=O)Nc1ccccc12 [Example 78]?
Answer: EC50 [1]: < 100 nM; IC50 (SARS-CoV-2 3CL-protease): < 100 nM

Question: Which EC50 [1] does the source give for CC(C)C(=O)N[C@@H](CC1CC1)C(=O)N(C)[C@@H](CC(C)(C)C)C(=O)N1C[C@]2(C[C@H]1C#N)C(=O)Nc1ccccc12 [Example 80] here?
Answer: The EC50 was under 100 nM.

Question: And the IC50 (SARS-CoV-2 3CL-protease)?
Answer: The IC50 was under 100 nM.

Question: How did the EC50 [1] turn out when CN(C(=O)[C@H](CC1CC1)NS(C)(=O)=O)[C@@H](CC(C)(C)C)C(=O)N1C[C@]2(C[C@H]1C#N)C(=O)Nc1ccccc12 [Example 81] was run?
Answer: The EC50 was under 100 nM.

Question: What about the IC50 (SARS-CoV-2 3CL-protease) of the same compound?
Answer: The IC50 was under 100 nM.

Question: How did the EC50 [1] turn out when CN(C(=O)[C@H](CC1CC1)NS(=O)(=O)C1CC1)[C@@H](CC(C)(C)C)C(=O)N1C[C@]2(C[C@H]1C#N)C(=O)Nc1ccccc12 [Example 82] was run?
Answer: The EC50 was under 100 nM.

Question: And the IC50 (SARS-CoV-2 3CL-protease)?
Answer: The IC50 was under 100 nM.

Question: What does the source list for CN(C(=O)[C@H](CC1CC1)NC(=O)N1CCOCC1)[C@@H](CC(C)(C)C)C(=O)N1C[C@]2(C[C@H]1C#N)C(=O)Nc1ccccc12 [Example 83]?
Answer: EC50 [1]: < 100 nM; IC50 (SARS-CoV-2 3CL-protease): < 100 nM

Question: Which results are given for CN(C(=O)[C@H](CC1CC1)NC(=O)NC1CC1)[C@@H](CC(C)(C)C)C(=O)N1C[C@]2(C[C@H]1C#N)C(=O)Nc1ccccc12 [Example 85]?
Answer: EC50 [1]: < 100 nM; IC50 (SARS-CoV-2 3CL-protease): < 100 nM

Question: Which results are given for CC(C)[C@H](NC(=O)OCc1ccccc1)C(=O)N[C@@H](CC(C)(C)C)C(=O)N1C[C@]2(C[C@H]1C#N)C(=O)Nc1ccccc12 [Example 86]?
Answer: EC50 [1]: 100 to 1000 nM; IC50 (SARS-CoV-2 3CL-protease): < 100 nM

Question: For CC(=O)N[C@H](C(=O)N[C@@H](CC(C)(C)C)C(=O)N1C[C@]2(C[C@H]1C#N)C(=O)Nc1ccccc12)C(C)C [Example 88], which EC50 [1] is on record?
Answer: The EC50 was 100 to 1000 nM.

Question: And the IC50 (SARS-CoV-2 3CL-protease)?
Answer: Its IC50 is 100 to 1000 nM.

Question: Which EC50 [1] does the source give for CC(=O)N[C@@H](C(=O)N[C@@H](CC(C)(C)C)C(=O)N1C[C@]2(C[C@H]1C#N)C(=O)Nc1ccccc12)C(C)C [Example 89] here?
Answer: Its EC50 is 100 to 1000 nM.

Question: And the IC50 (SARS-CoV-2 3CL-protease)?
Answer: Its IC50 is 100 to 1000 nM.

Question: What does the source list for CC(C)[C@H](NC(=O)C(F)(F)F)C(=O)N[C@@H](CC(C)(C)C)C(=O)N1C[C@]2(C[C@H]1C#N)C(=O)Nc1ccccc12 [Example 90]?
Answer: EC50 [1]: 100 to 1000 nM; IC50 (SARS-CoV-2 3CL-protease): < 100 nM

Question: What does the source list for CC(C)[C@@H](NC(=O)C(F)(F)F)C(=O)N[C@@H](CC(C)(C)C)C(=O)N1C[C@]2(C[C@H]1C#N)C(=O)Nc1ccccc12 [Example 91]?
Answer: EC50 [1]: 100 to 1000 nM; IC50 (SARS-CoV-2 3CL-protease): 100 to 1000 nM

Question: With CC(C)[C@H](NC(=O)c1cc2c(F)cc(F)c(F)c2[nH]1)C(=O)N[C@@H](CC(C)(C)C)C(=O)N1C[C@]2(C[C@H]1C#N)C(=O)Nc1ccccc12 [Example 92] as the compound, how does the EC50 [1] read?
Answer: The EC50 was 100 to 1000 nM.

Question: And the IC50 (SARS-CoV-2 3CL-protease)?
Answer: Its IC50 is under 100 nM.

Question: CC(C)[C@@H](NC(=O)c1cc2c(F)cc(F)c(F)c2[nH]1)C(=O)N[C@@H](CC(C)(C)C)C(=O)N1C[C@]2(C[C@H]1C#N)C(=O)Nc1ccccc12 [Example 93] was tested. Which EC50 [1] did it give?
Answer: The EC50 was over 1000 nM.

Question: And the IC50 (SARS-CoV-2 3CL-protease)?
Answer: The IC50 was over 1000 nM.

Question: CC(C)(C)C[C@H](NC(=O)[C@H](CC1CC1)NC(=O)OCc1ccccc1)C(=O)N1C[C@]2(C[C@H]1C#N)C(=O)Nc1ccccc12 [Example 94] was tested. Which EC50 [1] did it give?
Answer: The EC50 was under 100 nM.

Question: And the IC50 (SARS-CoV-2 3CL-protease)?
Answer: The IC50 was under 100 nM.

Question: How did the EC50 [1] turn out when CC(C)[C@H](NC(=O)c1ccc(F)c(F)c1)C(=O)N(C)[C@@H](CC(C)(C)C)C(=O)N1C[C@]2(C[C@H]1C#N)C(=O)Nc1ccccc12 [Example 107] was run?
Answer: The EC50 was 100 to 1000 nM.

Question: What about the IC50 (SARS-CoV-2 3CL-protease) of the same compound?
Answer: The IC50 was under 100 nM.

Question: Which results are given for CC(C)[C@H](NC(=O)c1cc(F)c(F)c(F)c1)C(=O)N(C)[C@@H](CC(C)(C)C)C(=O)N1C[C@]2(C[C@H]1C#N)C(=O)Nc1ccccc12 [Example 108]?
Answer: EC50 [1]: 100 to 1000 nM; IC50 (SARS-CoV-2 3CL-protease): < 100 nM

Question: With CC(C)[C@H](NC(=O)c1ccc2c(F)cc(F)cc2n1)C(=O)N(C)[C@@H](CC(C)(C)C)C(=O)N1C[C@]2(C[C@H]1C#N)C(=O)Nc1ccccc12 [Example 109] as the compound, how does the EC50 [1] read?
Answer: Its EC50 is 100 to 1000 nM.

Question: What about the IC50 (SARS-CoV-2 3CL-protease) of the same compound?
Answer: Its IC50 is under 100 nM.

Question: How did the EC50 [1] turn out when CC(C)[C@H](NC(=O)OCC1(c2ccccc2)CC1)C(=O)N(C)[C@@H](CC(C)(C)C)C(=O)N1C[C@]2(C[C@H]1C#N)C(=O)Nc1ccccc12 [Example 110] was run?
Answer: Its EC50 is 100 to 1000 nM.

Question: And the IC50 (SARS-CoV-2 3CL-protease)?
Answer: The IC50 was under 100 nM.

Question: How did the EC50 [1] turn out when CC(C)[C@H](NC(=O)N1CCCCC1)C(=O)N(C)[C@@H](CC(C)(C)C)C(=O)N1C[C@]2(C[C@H]1C#N)C(=O)Nc1ccccc12 [Example 112] was run?
Answer: Its EC50 is 100 to 1000 nM.

Question: And the IC50 (SARS-CoV-2 3CL-protease)?
Answer: The IC50 was under 100 nM.

Question: Which EC50 [1] does the source give for CC(=O)N[C@@H](Cc1cc(F)c(F)cc1F)C(=O)N(C)[C@@H](CC(C)(C)C)C(=O)N1C[C@]2(C[C@H]1C#N)C(=O)Nc1ccccc12 [Example 113] here?
Answer: Its EC50 is under 100 nM.

Question: And the IC50 (SARS-CoV-2 3CL-protease)?
Answer: The IC50 was under 100 nM.

Question: What does the source list for CC(=O)N[C@H](Cc1cc(F)c(F)cc1F)C(=O)N(C)[C@@H](CC(C)(C)C)C(=O)N1C[C@]2(C[C@H]1C#N)C(=O)Nc1ccccc12 [Example 114]?
Answer: EC50 [1]: < 100 nM; IC50 (SARS-CoV-2 3CL-protease): < 100 nM

Question: With CC(C)C[C@@H](C(=O)N1C[C@]2(C[C@H]1C#N)C(=O)Nc1ccccc12)N(C)C(=O)C1(NC(=O)OCc2ccccc2)CCCC1 [Example 115] as the compound, how does the EC50 [1] read?
Answer: Its EC50 is 100 to 1000 nM.

Question: What about the IC50 (SARS-CoV-2 3CL-protease) of the same compound?
Answer: Its IC50 is under 100 nM.

Question: For CC(C)OC(=O)N[C@@H](CC1CC1)C(=O)N(C)[C@@H](CC(C)(C)C)C(=O)N1C[C@]2(C[C@H]1C#N)C(=O)Nc1ccccc12 [Example 121], which EC50 [1] is on record?
Answer: The EC50 was under 100 nM.

Question: What about the IC50 (SARS-CoV-2 3CL-protease) of the same compound?
Answer: Its IC50 is under 100 nM.

Question: For CN(C(=O)[C@H](CC1CC1)NC(=O)C1COC1)[C@@H](CC(C)(C)C)C(=O)N1C[C@]2(C[C@H]1C#N)C(=O)Nc1ccccc12 [Example 122], which EC50 [1] is on record?
Answer: Its EC50 is under 100 nM.

Question: And the IC50 (SARS-CoV-2 3CL-protease)?
Answer: Its IC50 is under 100 nM.

Question: With COc1cc(C(=O)N[C@@H](CC2CC2)C(=O)N(C)[C@@H](CC(C)(C)C)C(=O)N2C[C@]3(C[C@H]2C#N)C(=O)Nc2ccccc23)cc2cn(C3CC3)nc12 [Example 123] as the compound, how does the EC50 [1] read?
Answer: Its EC50 is 100 to 1000 nM.

Question: What about the IC50 (SARS-CoV-2 3CL-protease) of the same compound?
Answer: Its IC50 is under 100 nM.

Question: For CN(C(=O)[C@H](CC1CC1)NC(=O)c1cn(C2CC2)nn1)[C@@H](CC(C)(C)C)C(=O)N1C[C@]2(C[C@H]1C#N)C(=O)Nc1ccccc12 [Example 124], which EC50 [1] is on record?
Answer: The EC50 was under 100 nM.

Question: And the IC50 (SARS-CoV-2 3CL-protease)?
Answer: The IC50 was under 100 nM.

Question: How did the EC50 [1] turn out when C[C@H](NC(=O)C(F)(F)F)C(=O)N(C)[C@@H](CC(C)(C)C)C(=O)N1C[C@]2(C[C@H]1C#N)C(=O)Nc1ccccc12 [Example 128] was run?
Answer: Its EC50 is under 100 nM.

Question: And the IC50 (SARS-CoV-2 3CL-protease)?
Answer: Its IC50 is under 100 nM.

Question: For [2H]C([2H])([2H])N(C(=O)[C@H](CC1CC1)NC(=O)C(F)(F)F)[C@@H](CC1CC1)C(=O)N1C[C@]2(C[C@H]1C#N)C(=O)Nc1ccccc12 [Example 134], which EC50 [1] is on record?
Answer: Its EC50 is under 100 nM.

Question: What about the IC50 (SARS-CoV-2 3CL-protease) of the same compound?
Answer: Its IC50 is under 100 nM.
